This is an account of results in US6518303B2, “2-phenylpyran-4-one derivatives” (Almirall Prodesfarma S.A., priority 1999, dated 2003).

The target of data set [1] is T1, COX-1 (Homo sapiens, UniProt P23219).
T1 construct: Fresh blood from healthy volunteers; endogenous in cells; host or cells: fresh heparinized human whole blood stimulated with calcium ionophore A23187
As to the kind of experiment: COX-1 activity in human whole blood (TXB2, calcium ionophore A23187). In kind it is cell-based. The conditions noted are these: 1 h at 37° C., TXB2 ELISA. As for the experimental part: For the COX-1 activity determination, 500 μl aliquots of blood were incubated with either 5 μl vehicle (dimethylsulphoxide) or 5 μl of a test compound for 1 h at 37° C. […] Plasma was separated by centrifugation (10 min at 13000 rpm) and kept at −30° C. until TXB2 levels were measured using an enzyme immunoassay kit (ELISA). The effect of the compounds were evaluated by incubating each compound at five to six different concentrations with triplicate determinations. IC50 values were obtained by non-linear regression using InPlot, GraphPad software on an IBM computer.
For orientation: An ELISA detects its analyte on a solid surface through an enzyme-linked reagent.

Data set [2] deals with T2, COX-2 (Homo sapiens, UniProt P35354).
T2 construct: incubated in the presence of LPS (10 μg/ml) for 24 h at 37° C. in order to induce The COX-2 expression; endogenous in cells; host or cells: fresh heparinized human whole blood, COX-2 induced with LPS for 24 h
T2 sequence (P35354 18-604): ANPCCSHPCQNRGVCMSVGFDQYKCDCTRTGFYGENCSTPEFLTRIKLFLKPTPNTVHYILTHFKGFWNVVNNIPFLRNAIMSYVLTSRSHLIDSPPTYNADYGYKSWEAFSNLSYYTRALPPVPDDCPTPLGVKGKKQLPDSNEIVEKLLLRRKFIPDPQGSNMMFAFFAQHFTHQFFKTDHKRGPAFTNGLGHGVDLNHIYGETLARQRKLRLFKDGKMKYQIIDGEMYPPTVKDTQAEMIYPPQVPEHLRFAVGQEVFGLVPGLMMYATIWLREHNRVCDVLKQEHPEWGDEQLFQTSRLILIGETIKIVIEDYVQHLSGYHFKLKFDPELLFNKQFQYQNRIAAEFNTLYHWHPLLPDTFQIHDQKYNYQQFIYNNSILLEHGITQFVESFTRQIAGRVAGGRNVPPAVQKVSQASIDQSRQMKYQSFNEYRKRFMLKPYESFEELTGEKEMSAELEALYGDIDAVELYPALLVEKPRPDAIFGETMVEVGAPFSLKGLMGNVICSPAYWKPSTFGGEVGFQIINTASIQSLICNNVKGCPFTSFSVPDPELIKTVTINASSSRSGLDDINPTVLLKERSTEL
Nature of the data set: COX-2 activity in human whole blood (PGE2, LPS-induced). The conditions noted are these: for IC50: human whole blood, LPS 10 μg/ml 24 h at 37° C., PGE2 ELISA; for Ratio COX-1/COX-2: ratio of whole blood IC50 values. In kind it is cell-based. As for the experimental part:
Plasma was separated by centrifugation (10 min at 13000 rpm.) and kept at −30° C. until PGE2 levels were measured using an enzyme immunoassay kit (ELISA). The effects of inhibitors were studied by incubating each compound (5 μl aliquots) at five to six different concentrations with triplicate determinations in the presence of LPS for 24 hours. IC50 values were obtained by non-linear regression using InPlot, GraphPad software on an IBM computer.

In data set [3] the test system is adjuvant arthritis (hind paw volume) in male Wistar rats. Nature of the data set: Anti-inflammatory activity (adjuvant arthritis). In kind it is in vivo, rat. To be noted: dose 1 mg/kg p.o. once daily for 7 days (days 14-20), measured day 21.
For data set [4], the system named is intestinal ulcers and hematocrit in male Wistar rats. As to the kind of experiment: Ulcerogenic activity. The data set is classed as in vivo, rat. To be noted: dose 10 mg/kg oral once a day for 4 days. As for the experimental part: Animals: Male Wistar rate (Interfauna, U.K., Ltd.) weighing about 150-175 g were used. Animals were maintained on a 12:12 hour light-dark cycle (lights on at 7:00 am) at room temperature (22±1° C.). Food and water were allowed ad libitum.
Procedure: The compounds were administered by the oral route once a day for 4 consecutive days. The body weight of each rat was assessed every day before drug administration. The animals were anesthesized 24 h after the last dosing and 1 ml of blood was extracted by cardiac puncture using heparin (10 U/ml) as anticoagulant. The percentage of hematocrit was measured. The intestines were removed, opened longitudinally and gently washed. The macroscopic severity of the intestinal erosions was assessed using a parametric scale, evaluating the number of the perforated and non-perforated intestinal ulcers by means of a lesion index ranging from 0 to 3 (0:no ulcers, 1:<10 ulcers, 2:10-25 ulcers to 3:>25 ulcers). No gastric ulcers are observed using this protocol.
The treatments were randomized in each experiment. The results were compared with those obtained in the vehicle-treated group using the ANOVA test.

Structures are written as SMILES. Some results are limits rather than exact numbers.

T1 sequence (P23219 24-599): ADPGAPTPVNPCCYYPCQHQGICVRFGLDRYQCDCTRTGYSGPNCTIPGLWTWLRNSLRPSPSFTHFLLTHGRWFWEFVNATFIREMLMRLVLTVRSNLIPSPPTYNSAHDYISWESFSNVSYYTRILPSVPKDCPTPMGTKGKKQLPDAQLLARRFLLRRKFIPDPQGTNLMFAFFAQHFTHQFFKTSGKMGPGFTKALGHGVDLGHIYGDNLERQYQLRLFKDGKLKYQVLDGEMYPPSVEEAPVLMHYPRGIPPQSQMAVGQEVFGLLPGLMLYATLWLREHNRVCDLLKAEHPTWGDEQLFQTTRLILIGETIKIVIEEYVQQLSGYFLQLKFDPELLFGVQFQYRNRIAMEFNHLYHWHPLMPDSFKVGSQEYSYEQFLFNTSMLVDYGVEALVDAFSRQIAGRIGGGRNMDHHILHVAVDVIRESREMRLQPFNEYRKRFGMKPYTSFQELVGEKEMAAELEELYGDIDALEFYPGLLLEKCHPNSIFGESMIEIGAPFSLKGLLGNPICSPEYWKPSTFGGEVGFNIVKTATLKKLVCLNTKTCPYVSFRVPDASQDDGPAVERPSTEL

Regarding `Cc1cc(=O)c(-c2ccc(F)cc2)c(-c2ccc(S(C)(=O)=O)cc2)o1` [Compound 2, 3-(4-fluorophenyl)-2-(4-methanesulfonylphenyl)-6-methylpyran-4-one], the melting point (usually the temperature, or range, at which the solid turns liquid) amounted to 237 °C. Besides, the IC50 (as a rule, the concentration needed to halve the response being measured) in data set [1] is more than 100000 nM. Besides, in data set [2], half-maximal inhibition (IC50) was put at 1060 nM and the “Ratio COX-1/COX-2” value is listed as more than 94.
The corresponding values for `Cc1cc(=O)c(-c2ccccc2F)c(-c2ccc(S(C)(=O)=O)cc2)o1` [Compound 4, 3-(2-fluorophenyl)-2-(4-methanesulfonylphenyl)-6-methylpyran-4-one] are 136 to 137 °C, more than 100000 nM, 1500 nM and more than 66.
In the case of `Cc1cc(=O)c(-c2ccc(Br)cc2)c(-c2ccc(S(C)(=O)=O)cc2)o1` [Compound 8, 3-(4-bromophenyl)-2-(4-methanesulfonylphenyl)-6-methylpyran-4-one], the melting point worked out at 198 °C. In addition, the IC50 in data set [1] was more than 100000 nM. In data set [2], the IC50 came out at 1700 nM and the “Ratio COX-1/COX-2” value was more than 58.
The compound `Cc1cc(=O)c(-c2ccc(F)cc2F)c(-c2ccc(S(C)(=O)=O)cc2)o1` [Compound 15, 3-(2,4-difluorophenyl)-2-(4-methanesulfonylphenyl)-6-methylpyran-4-one] showed a melting point of 208 °C. Also, in data set [2], the IC50 was 1100 nM and the “Ratio COX-1/COX-2” value came to 90.
Take `COc1ccc(-c2c(-c3ccc(S(C)(=O)=O)cc3)oc(C)cc2=O)cc1Cl` [Compound 31]: the melting point is 116 °C. Besides, the IC50 in data set [1] was more than 100000 nM. Moreover, in data set [2], inhibition was half-maximal at 1670 nM (IC50) and the “Ratio COX-1/COX-2” value is given as more than 59.
For `Cc1cc(=O)c(C2CCCCC2)c(-c2ccc(S(C)(=O)=O)cc2)o1` [Compound 33, 3-cyclohexyl-2-(4-methanesulfonylphenyl)-6-methylpyran-4-one], the melting point is 98 to 99 °C.
`Cc1cc(=O)c(Cc2ccccc2)c(-c2ccc(S(C)(=O)=O)cc2)o1` [Compound 37] returned a melting point of 137 °C. In addition, the IC50 in data set [1] is more than 100000 nM. Further, in data set [2], the concentration for half-maximal inhibition (IC50) amounted to 1080 nM and the “Ratio COX-1/COX-2” value is listed as more than 92.
In turn, `Cc1cc(=O)c(Oc2ccccc2)c(-c2ccc(S(C)(=O)=O)cc2)o1` [Compound 38, 2-(4-methanesulfonylphenyl)-6-methyl-3-phenoxypyran-4-one] yielded a melting point of 169 °C.
With `Cc1cc(=O)c(Oc2ccccc2F)c(-c2ccc(S(C)(=O)=O)cc2)o1` [Compound 40, 3-(2-fluorophenoxy)-2-(methanesulfonylphenyl)-6-methylpyran-4-one], in data set [1], the IC50 stood at 27000 nM. In data set [2], inhibition was half-maximal at 140 nM (IC50) and the “Ratio COX-1/COX-2” value was 193.
Regarding `Cc1cc(=O)c(Oc2ccccc2Cl)c(-c2ccc(S(C)(=O)=O)cc2)o1` [Compound 42, 3-(2-chlorophenoxy)-2-(methanesulfonylphenyl)-6-methylpyran-4-one], in data set [1], the IC50 was 41000 nM. Moreover, in data set [2], inhibition was half-maximal at 200 nM (IC50) and the “Ratio COX-1/COX-2” value was 205.
With `Cc1cc(=O)c(Oc2ccc(Br)cc2)c(-c2ccc(S(C)(=O)=O)cc2)o1` [Compound 43, 3-(4-bromophenoxy)-2-(4-methanesulfonylphenyl)-6-methylpyran-4-one], the melting point turned out to be 188 °C. The IC50 in data set [1] was more than 100000 nM. Besides, in data set [2], the IC50 is 800 nM and the “Ratio COX-1/COX-2” value is recorded as 125.
Take `Cc1ccc(Oc2c(-c3ccc(S(C)(=O)=O)cc3)oc(C)cc2=O)cc1` [Compound 44, 2-(4-methanesulfonylphenyl)-6-methyl-3-(4-methylphenoxy) pyran-4-one]: the melting point was found to be 183 °C. Also, in data set [1], the IC50 turned out to be 39000 nM.
For `Cc1cc(=O)c(Oc2cc(F)ccc2F)c(-c2ccc(S(C)(=O)=O)cc2)o1` [Compound 47, 3-(2,5-difluorophenoxy)-2-(4-methanesulfonylphenyl)-6-methylpyran-4-one], the melting point is 189 °C. The IC50 in data set [1] worked out at 57100 nM. In data set [2], the IC50 was 800 nM and the “Ratio COX-1/COX-2” value is recorded as 71.
Take `Cc1cc(=O)c(-c2ccccc2)c(-c2ccc(S(N)(=O)=O)cc2)o1` [Compound 54, 4-(6-methyl-4-oxo-3-phenyl-4H-pyran-2-yl)benzenesulfonamide]: the melting point was 218 °C.
`Cc1cc(=O)c(-c2ccc(F)cc2)c(-c2ccc(S(N)(=O)=O)cc2)o1` [Compound 55, 4-[3 (4-fluorophenyl)-6-methyl-4-oxo-4H-pyran-2-yl]benzenesulfonamide] returned a melting point of 247 °C.
The compound `Cc1cc(=O)c(-c2ccc(Cl)c(Cl)c2)c(-c2ccc(S(N)(=O)=O)cc2)o1` [Compound 56, 4-[3-(3,4-dichlorophenyl)-6-methyl-4-oxo-4H-pyran-2-yl]benzenesulfonamide] had a melting point of 128 °C.
For `Cc1cc(=O)c(Oc2ccc(Cl)cc2)c(-c2ccc(S(N)(=O)=O)cc2)o1` [Compound 57, 4-[3-(4-chlorophenoxy)-6-methyl-4-oxo-4H-pyran-2-yl]benzenesulfonamide], the melting point is 221 °C.
For `CS(=O)(=O)c1ccc(-c2oc(C#N)cc(=O)c2-c2ccc(F)cc2F)cc1` [Compound 59, 5-(2,4-difluorophenyl)-6-(4-methanesulfonylphenyl)-4-oxo-4H-pyran-2-carbonitrile], the melting point worked out at 113 °C.
Still for that read-out and setting: then `CS(=O)(=O)c1ccc(-c2oc(CO)cc(=O)c2-c2ccc(Cl)cc2)cc1` [Compound 60, 3-(4-chlorophenyl)-6-hydroxymethyl-2-(4-methanesulfonylphenyl)pyran-4-one], with 120 °C.
For `COCc1cc(=O)c(-c2ccc(Cl)cc2)c(-c2ccc(S(C)(=O)=O)cc2)o1` [Compound 63, 3-(4-chlorophenyl)-2-(4-methanesulfonylphenyl)-6-methoxymethylpyran-4-one], the IC50 in data set [1] came to 44000 nM. Further, in data set [2], the IC50 amounted to 1730 nM and the “Ratio COX-1/COX-2” value is on record as 25.
`CS(=O)(=O)c1ccc(-c2oc(C(=O)O)cc(=O)c2-c2ccc(Cl)cc2)cc1` [Compound 65, 5-(4-chlorophenyl)-6-(4-methanesulfonylphenyl)-4-oxo-4H-pyran-2-carboxylic acid]: the melting point worked out at 236 °C.
Compound `CS(=O)(=O)c1ccc(-c2oc(C(F)F)cc(=O)c2-c2ccc(Cl)cc2)cc1` [Compound 67, 3-(4-chlorophenyl)-6-difluoromethyl-2-(4-methanesulfonylphenyl)pyran-4-one] showed a melting point of 168 to 170 °C. Also, the IC50 in data set [1] is more than 100000 nM. In addition, in data set [2], half-maximal inhibition (IC50) was put at 2100 nM and the “Ratio COX-1/COX-2” value is recorded as more than 47.
In the case of `COc1ccc2c(c1)c(CC(=O)O)c(C)n2C(=O)c1ccc(Cl)cc1` [Indomethacin, 1-(4-chlorobenzoyl)-5-methoxy-2-methylindole-3-acetic acid, reference compound], in data set [3], the “% Inhibition of inflammation (paw volume)” value was 64 (1) %. This compound showed a Hematocrit in data set [4] of 22.7 ± 1.6%. In data set [4] (index 0 to 3), the “Lesion index NPU (non-perforated ulcers)” value was 3 (3:>25 ulcers) and the “Lesion index PU (perforated ulcers)” value is recorded as 3 (3:>25 ulcers).
